Data taken from publication PMC10673995, “Discovery of a novel cardiac-specific myosin modulator using artificial intelligence-based virtual screening” (Nature Communications, 2023).
“And” between values parts separate entries of the source, which are not always exact repeats. Identical values can stand only once.

Tests used:
bovine cardiac myosin S1 = bovine cardiac myosin S1 (Bos taurus, UniProt Q9BE39); experiment: mant-ATP chase single nucleotide turnover, myosin S1; conditions: for Representative Traces (mant-ATP chase, normalised signal): representative trace, sheet Figure 3a;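 for all read-outs here: 0.4 µM S1 preloaded with equimolar mant-ATP, chased by 2 mM ATP, mant fluorescence (ex 360, em 450 nm) read each second over 15 min at 25 °C, biexponential fit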
Description: Chase of mant-ATP loaded cardiac myosin S1 with ATP leads to a decrease in the mant fluorescence intensity which is best described by a bi-exponential decay function with an initial fast phase followed by a second slower phase, corresponding to the so-called disordered (DRX) and super-relaxed state (SRX) of myosin, respectively.

[1] = target: T1, synthetic thick filaments formed from purified full-length bovine β-cardiac myosin (Bos taurus, UniProt Q9BE39); experiment: mant-ATP chase single nucleotide turnover, synthetic thick filaments; assay type: biochemical; conditions: for Representative Traces (mant-ATP chase, fluorescence signal over time): Figure 3b
T1 construct: diluting full-length bovine cardiac myosin stock into assay buffer; from tissue; host or cells: bovine cardiac muscle (the text says isolated/purified and describes no preparation)
Description: We used systems of increasing complexity ranging from the isolated cardiac myosin motor domains (Fig. 3a) to synthetic thick filaments formed from purified full-length bovine cardiac myosin (Fig. 3b) and bovine cardiac myofibrils as substrates in the chase assays (Fig. 3c). In contrast to the isolated myosin motors, synthetic thick filaments contain two myosin head domains per molecule connected via their coiled-coil tail.
Synthetic thick filaments were freshly prepared by diluting full-length bovine cardiac myosin stock into assay buffer (composition in mmol L^−1: 15 PIPES pH 7, 5 MgCl2, 1 DTT) and incubation on ice for 2 h. Bovine myosin S1 and synthetic thick filament concentrations were adjusted to 0.4 μmol L^−1 with assay buffer and 40 μL aliquoted into individual wells of a black 384-well plate (Greiner). Mant-ATP (JenaBioscience) was added to each well to a final concentration of 0.4 μmol L^−1 using an automated injector unit in a ClarioStar Plate Reader (BMG LabTech) and the system was allowed to age for 1 min. The chase phase was started by adding a final concentration of 2 mmol L^−1 ATP using a second automated injector unit. Fluorescence intensity from each well was constantly measured for 15 min every 1 sec at 25 °C with the following settings: excitation at 360 nm with a 20 nm bandwidth and emission at 450 nm with a 20 nm bandwidth. For experiments with cardiac myofibrils the concentration was adjusted to 1 mg m L^−1, and the mant-ATP and ATP concentrations were increased to 20 μmol L^−1 and 20 mmol L^−1, respectively.

[2] = Beta-cardiac myosin S1, individual replicates
[3] = Synthetic Myosin Filaments, individual replicates

Sequence of bovine cardiac myosin S1 (Q9BE39 85-778 limits assumed): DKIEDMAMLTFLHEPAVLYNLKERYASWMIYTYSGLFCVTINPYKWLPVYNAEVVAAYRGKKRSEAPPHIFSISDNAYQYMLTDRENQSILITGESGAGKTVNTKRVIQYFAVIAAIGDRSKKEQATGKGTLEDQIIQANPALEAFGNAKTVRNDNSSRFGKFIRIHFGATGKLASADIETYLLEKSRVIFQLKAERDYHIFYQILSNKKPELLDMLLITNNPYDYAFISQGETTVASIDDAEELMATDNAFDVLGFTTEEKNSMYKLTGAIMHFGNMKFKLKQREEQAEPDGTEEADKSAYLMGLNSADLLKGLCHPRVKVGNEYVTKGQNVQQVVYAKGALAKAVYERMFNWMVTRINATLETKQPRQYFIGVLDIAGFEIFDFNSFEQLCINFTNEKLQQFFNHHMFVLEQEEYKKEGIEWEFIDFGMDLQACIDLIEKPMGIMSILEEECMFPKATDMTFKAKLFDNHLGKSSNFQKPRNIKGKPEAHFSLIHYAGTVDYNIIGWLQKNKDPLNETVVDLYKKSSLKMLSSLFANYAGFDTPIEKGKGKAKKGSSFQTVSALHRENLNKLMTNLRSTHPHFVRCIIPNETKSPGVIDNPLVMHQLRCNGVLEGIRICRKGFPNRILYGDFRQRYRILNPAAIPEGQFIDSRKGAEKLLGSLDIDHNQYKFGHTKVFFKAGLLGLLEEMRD
Sequence of bovine cardiac myosin S1 (P85100 whole entry partner): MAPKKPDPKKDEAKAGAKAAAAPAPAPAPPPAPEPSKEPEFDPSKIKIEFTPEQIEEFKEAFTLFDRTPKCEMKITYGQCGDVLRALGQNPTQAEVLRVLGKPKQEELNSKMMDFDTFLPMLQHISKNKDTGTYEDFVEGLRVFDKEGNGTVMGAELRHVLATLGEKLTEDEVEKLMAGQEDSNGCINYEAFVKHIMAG
T1 sequence (Q9BE39 whole entry): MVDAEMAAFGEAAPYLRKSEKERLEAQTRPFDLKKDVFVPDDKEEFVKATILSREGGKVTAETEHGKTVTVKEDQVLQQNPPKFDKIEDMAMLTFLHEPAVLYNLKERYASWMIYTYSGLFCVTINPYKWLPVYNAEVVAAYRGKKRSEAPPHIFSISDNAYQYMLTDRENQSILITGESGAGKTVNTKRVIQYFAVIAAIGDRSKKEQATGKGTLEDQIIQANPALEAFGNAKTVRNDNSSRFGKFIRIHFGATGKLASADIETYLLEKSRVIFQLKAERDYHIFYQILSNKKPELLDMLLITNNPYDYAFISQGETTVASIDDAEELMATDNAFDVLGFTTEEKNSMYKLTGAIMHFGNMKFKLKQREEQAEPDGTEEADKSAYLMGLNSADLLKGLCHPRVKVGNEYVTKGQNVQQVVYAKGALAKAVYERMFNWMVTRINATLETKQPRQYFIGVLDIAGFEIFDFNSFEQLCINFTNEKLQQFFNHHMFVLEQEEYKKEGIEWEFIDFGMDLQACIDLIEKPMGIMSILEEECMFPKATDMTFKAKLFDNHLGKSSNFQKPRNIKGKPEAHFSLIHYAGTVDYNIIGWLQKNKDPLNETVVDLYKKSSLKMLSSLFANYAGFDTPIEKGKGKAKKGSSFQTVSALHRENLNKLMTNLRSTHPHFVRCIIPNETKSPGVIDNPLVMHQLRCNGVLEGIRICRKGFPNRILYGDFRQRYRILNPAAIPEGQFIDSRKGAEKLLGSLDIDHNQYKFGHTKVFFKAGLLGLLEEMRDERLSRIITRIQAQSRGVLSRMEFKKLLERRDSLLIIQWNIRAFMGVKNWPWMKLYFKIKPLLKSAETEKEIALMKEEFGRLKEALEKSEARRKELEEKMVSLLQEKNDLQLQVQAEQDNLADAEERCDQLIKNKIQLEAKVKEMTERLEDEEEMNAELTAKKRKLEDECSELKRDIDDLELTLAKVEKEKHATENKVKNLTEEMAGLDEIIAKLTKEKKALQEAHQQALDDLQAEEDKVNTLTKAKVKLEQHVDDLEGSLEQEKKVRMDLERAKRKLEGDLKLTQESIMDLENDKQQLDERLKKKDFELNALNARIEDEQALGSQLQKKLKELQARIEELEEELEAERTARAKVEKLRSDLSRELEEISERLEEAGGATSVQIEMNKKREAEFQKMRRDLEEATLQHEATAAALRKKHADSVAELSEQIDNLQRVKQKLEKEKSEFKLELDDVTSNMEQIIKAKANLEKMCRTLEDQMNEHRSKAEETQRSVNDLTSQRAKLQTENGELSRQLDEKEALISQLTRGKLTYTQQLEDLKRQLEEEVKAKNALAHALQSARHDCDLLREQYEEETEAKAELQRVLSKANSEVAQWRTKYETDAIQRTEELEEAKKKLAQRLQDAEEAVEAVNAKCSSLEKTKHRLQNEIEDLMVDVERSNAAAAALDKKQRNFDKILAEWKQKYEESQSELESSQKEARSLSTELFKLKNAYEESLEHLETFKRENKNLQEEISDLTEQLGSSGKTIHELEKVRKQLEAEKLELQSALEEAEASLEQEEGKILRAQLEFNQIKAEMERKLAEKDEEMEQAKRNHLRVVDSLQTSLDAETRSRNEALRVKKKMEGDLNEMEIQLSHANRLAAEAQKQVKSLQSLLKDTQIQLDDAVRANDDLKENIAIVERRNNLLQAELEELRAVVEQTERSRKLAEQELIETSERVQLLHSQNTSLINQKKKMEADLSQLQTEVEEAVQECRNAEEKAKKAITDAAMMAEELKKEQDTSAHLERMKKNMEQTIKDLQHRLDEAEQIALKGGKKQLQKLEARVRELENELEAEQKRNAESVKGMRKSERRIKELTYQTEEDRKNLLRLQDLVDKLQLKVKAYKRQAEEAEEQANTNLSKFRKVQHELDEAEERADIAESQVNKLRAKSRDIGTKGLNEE
T1 sequence (P85100 whole entry partner): as the sequence (P85100 whole entry partner) above
T1 sequence (Q3SZE5 whole entry partner): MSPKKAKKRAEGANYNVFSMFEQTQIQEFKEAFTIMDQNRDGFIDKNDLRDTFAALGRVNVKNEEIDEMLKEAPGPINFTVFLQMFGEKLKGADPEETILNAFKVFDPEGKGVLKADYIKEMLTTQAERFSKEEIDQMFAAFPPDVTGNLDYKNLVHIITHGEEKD

`CC(C)n1c(=O)cc(N[C@@H](C)c2ccccc2)[nH]c1=O` [Mavacamten] was tested, and the “effect on the rate of the fast DRX phase” value (bovine cardiac myosin S1) was “no effect”, the kslow (bovine cardiac myosin S1; 2 μmol L^-1 Mavacamten or 20 μmol L^-1 F10, control 0.0058 ± 0.0010) was 0.0035 ± 0.0002 s⁻¹ and the kfast (bovine cardiac myosin S1; [2]) was 0.009858 s⁻¹ and 0.01039 s⁻¹ and 0.07197 s⁻¹ and 0.03575 s⁻¹ and 0.01101 s⁻¹ and 0.01169 s⁻¹. For the same compound, the kslow (bovine cardiac myosin S1; [2]) was 0.00364 s⁻¹ and 0.002861 s⁻¹ and 0.004023 s⁻¹ and 0.004095 s⁻¹ and 0.003004 s⁻¹ and 0.003638 s⁻¹, the slow phase (bovine cardiac myosin S1; [2]) was 82.01% and 63.89% and 87.3% and 56.77% and 56.99% and 79.26% and the “Representative Traces, normalised fluorescence” value (bovine cardiac myosin S1; t 396 s) was 0.2925. For the same compound, the “Representative Traces, normalised fluorescence” value (bovine cardiac myosin S1; t 397 s) was 0.3426, the “Representative Traces, normalised fluorescence” value (bovine cardiac myosin S1; t 398 s) was 0.3062 and the “Representative Traces, normalised fluorescence” value (bovine cardiac myosin S1; t 399 s) was 0.3254. The “Representative Traces, normalised fluorescence” value (bovine cardiac myosin S1; t 400 s) was 0.3408, the “Representative Traces, normalised fluorescence” value (bovine cardiac myosin S1; t 401 s) was 0.3177 and the “Representative Traces, normalised fluorescence” value (bovine cardiac myosin S1; t 402 s) was 0.2999. The “Representative Traces, normalised fluorescence” value (bovine cardiac myosin S1; t 403 s) was 0.3192, the “Representative Traces, normalised fluorescence” value (bovine cardiac myosin S1; t 404 s) was 0.3277 and the “Representative Traces, normalised fluorescence” value (bovine cardiac myosin S1; t 405 s) was 0.3461. For the same compound, the “Representative Traces, normalised fluorescence” value (bovine cardiac myosin S1; t 406 s) was 0.3076, the “Representative Traces, normalised fluorescence” value (bovine cardiac myosin S1; t 407 s) was 0.3064 and the “Representative Traces, normalised fluorescence” value (bovine cardiac myosin S1; t 408 s) was 0.3235. The “Representative Traces, normalised fluorescence” value (bovine cardiac myosin S1; t 409 s) was 0.3324, the “Representative Traces, normalised fluorescence” value (bovine cardiac myosin S1; t 411 s) was 0.3126 and the “Representative Traces, normalised fluorescence” value (bovine cardiac myosin S1; t 412 s) was 0.2865. For the same compound, the “Representative Traces, normalised fluorescence” value (bovine cardiac myosin S1; t 413 s) was 0.2993, the “Representative Traces, normalised fluorescence” value (bovine cardiac myosin S1; t 414 s) was 0.3256 and the “Representative Traces, normalised fluorescence” value (bovine cardiac myosin S1; t 415 s) was 0.2791. The “Representative Traces, normalised fluorescence” value (bovine cardiac myosin S1; t 416 s) was 0.3071, the “Representative Traces, normalised fluorescence” value (bovine cardiac myosin S1; t 417 s) was 0.3285 and the “Representative Traces, normalised fluorescence” value (bovine cardiac myosin S1; t 418 s) was 0.3567. The “Representative Traces, normalised fluorescence” value (bovine cardiac myosin S1; t 419 s) was 0.2951, the “Representative Traces, normalised fluorescence” value (bovine cardiac myosin S1; t 420 s) was 0.2958 and the “Representative Traces, normalised fluorescence” value (bovine cardiac myosin S1; t 421 s) was 0.2771. For the same compound, the “Representative Traces, normalised fluorescence” value (bovine cardiac myosin S1; t 422 s) was 0.3283, the “Representative Traces, normalised fluorescence” value (bovine cardiac myosin S1; t 423 s) was 0.3329 and the “Representative Traces, normalised fluorescence” value (bovine cardiac myosin S1; t 424 s) was 0.3402. The “Representative Traces, normalised fluorescence” value (bovine cardiac myosin S1; t 425 s) was 0.3675, the “Representative Traces, normalised fluorescence” value (bovine cardiac myosin S1; t 426 s) was 0.3241 and the “Representative Traces, normalised fluorescence” value (bovine cardiac myosin S1; t 427 s) was 0.3018. The “Representative Traces, normalised fluorescence” value (bovine cardiac myosin S1; t 429 s) was 0.3105, the “Representative Traces, normalised fluorescence” value (bovine cardiac myosin S1; t 430 s) was 0.2835 and the “Representative Traces, normalised fluorescence” value (bovine cardiac myosin S1; t 431 s) was 0.3652. The “Representative Traces, normalised fluorescence” value (bovine cardiac myosin S1; t 432 s) was 0.276, the “Representative Traces, normalised fluorescence” value (bovine cardiac myosin S1; t 433 s) was 0.3282 and the “Representative Traces, normalised fluorescence” value (bovine cardiac myosin S1; t 434 s) was 0.3046. The “Representative Traces, normalised fluorescence” value (bovine cardiac myosin S1; t 436 s) was 0.327, the “Representative Traces, normalised fluorescence” value (bovine cardiac myosin S1; t 438 s) was 0.2936 and the “Representative Traces, normalised fluorescence” value (bovine cardiac myosin S1; t 439 s) was 0.2402. The “Representative Traces, normalised fluorescence” value (bovine cardiac myosin S1; t 440 s) was 0.312, the “Representative Traces, normalised fluorescence” value (bovine cardiac myosin S1; t 442 s) was 0.3011 and the “Representative Traces, normalised fluorescence” value (bovine cardiac myosin S1; t 443 s) was 0.3298. The “Representative Traces, normalised fluorescence” value (bovine cardiac myosin S1; t 444 s) was 0.251, the “Representative Traces, normalised fluorescence” value (bovine cardiac myosin S1; t 445 s) was 0.2991 and the “Representative Traces, normalised fluorescence” value (bovine cardiac myosin S1; t 448 s) was 0.3473. For the same compound, the “Representative Traces, normalised fluorescence” value (bovine cardiac myosin S1; t 449 s) was 0.3057, the “Representative Traces, normalised fluorescence” value (bovine cardiac myosin S1; t 450 s) was 0.2886 and the “Representative Traces, normalised fluorescence” value (bovine cardiac myosin S1; t 451 s) was 0.2859. The “Representative Traces, normalised fluorescence” value (bovine cardiac myosin S1; t 452 s) was 0.29, the “Representative Traces, normalised fluorescence” value (bovine cardiac myosin S1; t 453 s) was 0.2756 and the “Representative Traces, normalised fluorescence” value (bovine cardiac myosin S1; t 454 s) was 0.2575. For the same compound, the “Representative Traces, normalised fluorescence” value (bovine cardiac myosin S1; t 455 s) was 0.3029, the “Representative Traces, normalised fluorescence” value (bovine cardiac myosin S1; t 457 s) was 0.3415 and the “Representative Traces, normalised fluorescence” value (bovine cardiac myosin S1; t 458 s) was 0.2853. The “Representative Traces, normalised fluorescence” value (bovine cardiac myosin S1; t 459 s) was 0.3237, the “Representative Traces, normalised fluorescence” value (bovine cardiac myosin S1; t 460 s) was 0.3029 and the “Representative Traces, normalised fluorescence” value (bovine cardiac myosin S1; t 461 s) was 0.3217. For the same compound, the “Representative Traces, normalised fluorescence” value (bovine cardiac myosin S1; t 462 s) was 0.3036, the “Representative Traces, normalised fluorescence” value (bovine cardiac myosin S1; t 463 s) was 0.347 and the “Representative Traces, normalised fluorescence” value (bovine cardiac myosin S1; t 464 s) was 0.2897. For the same compound, the “Representative Traces, normalised fluorescence” value (bovine cardiac myosin S1; t 465 s) was 0.2531, the “Representative Traces, normalised fluorescence” value (bovine cardiac myosin S1; t 466 s) was 0.2878 and the “Representative Traces, normalised fluorescence” value (bovine cardiac myosin S1; t 467 s) was 0.2939. For the same compound, the “Representative Traces, normalised fluorescence” value (bovine cardiac myosin S1; t 468 s) was 0.2524, the “Representative Traces, normalised fluorescence” value (bovine cardiac myosin S1; t 469 s) was 0.272 and the “Representative Traces, normalised fluorescence” value (bovine cardiac myosin S1; t 470 s) was 0.2865. The “Representative Traces, normalised fluorescence” value (bovine cardiac myosin S1; t 471 s) was 0.2593, the “Representative Traces, normalised fluorescence” value (bovine cardiac myosin S1; t 472 s) was 0.2417 and the “Representative Traces, normalised fluorescence” value (bovine cardiac myosin S1; t 473 s) was 0.3026. For the same compound, the “Representative Traces, normalised fluorescence” value (bovine cardiac myosin S1; t 474 s) was 0.305, the “Representative Traces, normalised fluorescence” value (bovine cardiac myosin S1; t 475 s) was 0.2893 and the “Representative Traces, normalised fluorescence” value (bovine cardiac myosin S1; t 476 s) was 0.2207. The “Representative Traces, normalised fluorescence” value (bovine cardiac myosin S1; t 477 s) was 0.2579, the “Representative Traces, normalised fluorescence” value (bovine cardiac myosin S1; t 479 s) was 0.2507 and the “Representative Traces, normalised fluorescence” value (bovine cardiac myosin S1; t 481 s) was 0.3039. For the same compound, the “Representative Traces, normalised fluorescence” value (bovine cardiac myosin S1; t 482 s) was 0.2976, the “Representative Traces, normalised fluorescence” value (bovine cardiac myosin S1; t 483 s) was 0.3557 and the “Representative Traces, normalised fluorescence” value (bovine cardiac myosin S1; t 484 s) was 0.2911. For the same compound, the “Representative Traces, normalised fluorescence” value (bovine cardiac myosin S1; t 485 s) was 0.3282, the “Representative Traces, normalised fluorescence” value (bovine cardiac myosin S1; t 486 s) was 0.3063 and the “Representative Traces, normalised fluorescence” value (bovine cardiac myosin S1; t 487 s) was 0.301. For the same compound, the “Representative Traces, normalised fluorescence” value (bovine cardiac myosin S1; t 489 s) was 0.3448, the “Representative Traces, normalised fluorescence” value (bovine cardiac myosin S1; t 490 s) was 0.2903 and the “Representative Traces, normalised fluorescence” value (bovine cardiac myosin S1; t 491 s) was 0.2724. For the same compound, the “Representative Traces, normalised fluorescence” value (bovine cardiac myosin S1; t 492 s) was 0.2681, the “Representative Traces, normalised fluorescence” value (bovine cardiac myosin S1; t 493 s) was 0.2418 and the “Representative Traces, normalised fluorescence” value (bovine cardiac myosin S1; t 494 s) was 0.2422. The “Representative Traces, normalised fluorescence” value (bovine cardiac myosin S1; t 495 s) was 0.2809, the “Representative Traces, normalised fluorescence” value (bovine cardiac myosin S1; t 496 s) was 0.2322 and the “Representative Traces, normalised fluorescence” value (bovine cardiac myosin S1; t 498 s) was 0.212. The “Representative Traces, normalised fluorescence” value (bovine cardiac myosin S1; t 499 s) was 0.2038, the “Representative Traces, normalised fluorescence” value (bovine cardiac myosin S1; t 500 s) was 0.275 and the “Representative Traces, normalised fluorescence” value (bovine cardiac myosin S1; t 501 s) was 0.2793. The “Representative Traces, normalised fluorescence” value (bovine cardiac myosin S1; t 502 s) was 0.2398, the “Representative Traces, normalised fluorescence” value (bovine cardiac myosin S1; t 503 s) was 0.2758 and the “Representative Traces, normalised fluorescence” value (bovine cardiac myosin S1; t 504 s) was 0.2833. The “Representative Traces, normalised fluorescence” value (bovine cardiac myosin S1; t 505 s) was 0.2324, the “Representative Traces, normalised fluorescence” value (bovine cardiac myosin S1; t 506 s) was 0.2749 and the “Representative Traces, normalised fluorescence” value (bovine cardiac myosin S1; t 507 s) was 0.3022. The “Representative Traces (mant-ATP chase, normalised signal)” value (bovine cardiac myosin S1; t = 796 s) was 0.1415, the “Representative Traces (mant-ATP chase, normalised signal)” value (bovine cardiac myosin S1; t = 797 s) was 0.08266 and the “effect on the rate of the fast DRX phase” value [1] was “no effect”. The “Bar graph (Figure 3b, mant-ATP chase)” value ([1]; Figure 3b source data, individual replicate values) was 77.58 and 71.76 and 78.3 and 63.78 and 62.87 and 75.77 and 68.24, the “Representative Traces (mant-ATP chase, fluorescence signal over time)” value ([1]; t = 796 s) was 0.1167 and the “Representative Traces (mant-ATP chase, fluorescence signal over time)” value ([1]; t = 797 s) was 0.08985. The “Representative Traces (mant-ATP chase, fluorescence signal over time)” value ([1]; t = 798 s) was 0.08985, the kfast [1, 3] was 0.1528 s⁻¹ and 0.02969 s⁻¹ and 0.09681 s⁻¹ and 0.02631 s⁻¹ and 0.06313 s⁻¹ and 0.02802 s⁻¹ and the kslow [1, 3] was 0.001307 s⁻¹ and 0.001384 s⁻¹ and 0.002093 s⁻¹ and 0.003633 s⁻¹ and 0.005541 s⁻¹ and 0.004994 s⁻¹. For the same compound, the slow phase [1, 3] was 71.76% and 78.3% and 63.78% and 62.87% and 75.77% and 68.24%, the kslow ([1]; control 0.0046 ± 0.0007) was 0.0033 ± 0.0007 s⁻¹ and the kfast ([1]; control […]) was 0.0593 ± 0.0188 s⁻¹.
